Experiment in all cases: NCI anticancer screen, dose series, 48 h
For test [1], the system named is NCI/ADR-RES ovarian.
Test [2] deals with MDA-MB-435.
In test [3] the test system is HOP-62 NSCLC.
The test system of test [4] is CCRF-CEM leukemia.
Test [5] relates to BT-549 breast.
Test [6] relates to KM12 colon.
The subject of test [7] is SK-MEL-2 melanoma.
The test system of test [8] is SF-295 CNS.
The subject of test [9] is NCI-H23 lung.
Test [10] relates to RXF 393 renal.

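Growth conditions: 96-well plates. Treatment: test compound, 48 hours, 5 concentrations. Analysis: linear interpolation between bracketing concentrations; unreached endpoints set to highest concentration. GI50 = concentration required for 50% inhibition of growth. At the TGI there is no net growth.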 *1 amine or outer side, *2 acyl side, *3 side chain or, on linkers, in order; H or OH if unused. Where a SMILES comes first, the peptide text is derived from it. Bridges are numbered along the chain shown (N, C = ends). Roman numbers before positions name the chains, in order. [ ]: non-standard residue; d: D form. Actinocin(9to1) = Cc1c2oc3c(C)ccc(C(=O)[*:1])c3nc-2c(C(=O)[*:2])c(N)c1=O; NMeV = CN[CH](C(=O)O)C(C)C; Sar = CNCC(=O)O

Take `Nc1ncn(C2OC(COP(=O)(O)O)C(O)C2O)c(=O)n1` (stereo not given): the TGI is > 100 µM in test [1]; > 73.6 µM in test [2]; > 100 µM in [3]; > 52.4 µM in test [4]; > 100 µM in [5]; > 100 µM in test [6]. In addition, the TGI in test [7], in test [8], in test [9] and in [10] was > 100 µM each time.
Take `O=c1cc(-c2ccccc2)oc2ccc(OC/C(=N/O)c3ccc(F)cc3)cc12`: the GI50 was 2.97 µM in test [1]; 0.913 µM in [2]; 8.79 µM in test [3]; 3.24 µM in test [4]; 1.01 µM in test [5]; 1.6 µM in test [6]. Further, the GI50 in test [7] was 12.3 µM; in test [8], 1.79 µM; in test [9], 5.43 µM; in test [10] it was 9.99 µM. Besides, the TGI in test [1] is 12.8 µM; in [2], 1.98 µM; in [3], > 50 µM; in test [4], 17.1 µM; in test [5] it was 2.67 µM; in [6] it was 6.01 µM. Also, the TGI in [7] was > 50 µM; in test [8], 8.12 µM; in test [9], 38.4 µM; in test [10] it was 26.1 µM.
For `COc1cc(OC)cc(-c2nc3sccn3c2/C=N/N=C(N)N)c1`, the GI50 in test [1] was 26.4 µM; in test [2], 8.71 µM; in test [3], 9.95 µM; in test [4] it was 10.9 µM; in [5] it was 6.87 µM; in [6], 3.13 µM. Further, the GI50 was 16.7 µM in test [7], 8.94 µM in test [8], 7.9 µM in test [9] and 7.96 µM in test [10]. The TGI was > 50 µM in test [1]; 16.1 µM in test [2]; 17 µM in test [3]; 19.5 µM in test [4]; 14 µM in test [5]; 10.3 µM in [6]. Moreover, the TGI was > 50 µM in [7], 17.7 µM in test [8], 15.6 µM in test [9] and 16.7 µM in [10].
Consider `COC12C=C/C(=C(/C(=O)OCCSc3ccnn3C)C(=O)CCCCCCCCC3(OC)C=C/C(=C(/C(=O)OCCSc4ccnn4C)C(=O)CCCCCCCC1)O3)O2`, for which the GI50 in [1] was 1.64 µM; in [2], 0.685 µM; in test [3], 0.95 µM; in test [4], 1.09 µM; in test [5], 0.954 µM; in test [6] it was 0.813 µM. The GI50 in test [7] was 0.928 µM; in test [8] it was 0.948 µM; in test [9], 0.854 µM; in test [10], 0.665 µM. Moreover, the TGI in test [1] is > 32.5 µM; in test [2], 1.57 µM; in test [3], 2.81 µM; in [4], > 32.5 µM; in test [5], 2.83 µM; in test [6], 2.1 µM. Further, the TGI in [7] was determined as 2.8 µM; in test [8] it was 2.93 µM; in test [9], 2.37 µM; in test [10], 1.17 µM.
Consider `c1cc(CN2CCCNCCNCCCNCC2)ccc1CN1CCCNCCNCCCNCC1`, for which the GI50 in test [1], in test [2], in test [3], in [4], in test [5] and in test [6] was > 100 µM in each case. Moreover, the GI50 in [7], in [8], in test [9] and in [10] was > 100 µM in each case. For the same molecule, the TGI in test [1], in test [2], in test [3], in [4], in test [5] and in test [6] was > 100 µM throughout. Further, the TGI in test [7], in test [8], in [9] and in test [10] was > 100 µM in each case.
On to `COC(NC(N)=O)C(=O)O` (stereo not given), for which the TGI in [1], in test [2], in [3], in test [4], in test [5] and in test [6] was > 100 µM in each case. For the same molecule, the TGI in [7], in test [8], in test [9] and in test [10] was > 100 µM throughout.
For the molecule `O=C(O)C1CCN(Cc2oc(CO)cc(=O)c2O)C1` (stereo not given), the TGI in test [1], in [2], in test [3], in test [4], in test [5] and in test [6] was > 100 µM throughout. The TGI in test [7], in [8], in test [9] and in test [10] was > 100 µM throughout.
In the case of `COc1cccc(Sc2ccc([N+](=O)[O-])c3no[n+]([O-])c23)c1`, the GI50 is 5.97 µM in test [1]; 13.4 µM in test [2]; 25.2 µM in [3]; 2.6 µM in test [4]; 8.06 µM in test [5]; 17.2 µM in [6]. Also, the GI50 in test [7] is 20.9 µM; in test [8] it was 24.5 µM; in test [9], 7.14 µM; in [10], 8.99 µM. The TGI amounted to 19.1 µM in test [1]; 43.1 µM in test [2]; 50 µM in test [3]; 8.14 µM in [4]; 22.1 µM in test [5]; 33.5 µM in [6]. Also, the TGI turned out to be 45.2 µM in test [7], 62.8 µM in test [8], 25 µM in test [9] and 23.8 µM in [10].
Turning to `C=C1C(=O)O[C@H]2[C@H]1CC/C(COC(=O)c1cn(C)c3ccccc13)=C\CC[C@@]1(C)O[C@@H]21`, the GI50 is 2.15 µM in test [1]; 1.34 µM in test [2]; 1.81 µM in [3]; 0.217 µM in test [4]; 0.514 µM in [5]; 1.83 µM in [6]. Further, the GI50 was 1.38 µM in [7], 2.41 µM in test [8], 1.93 µM in test [9] and 0.589 µM in test [10]. For the same molecule, the TGI in [1] was 14.2 µM; in [2], 3.34 µM; in test [3], 3.76 µM; in test [4] it was 0.94 µM; in [5] it was 1.99 µM; in test [6] it was 4.79 µM. Also, the TGI in [7] stood at 2.82 µM; in [8] it was 6.98 µM; in test [9], 4.92 µM; in test [10], 2.11 µM.
In the case of `O=C(Nc1ccc2ncnc(Nc3ccc(Oc4cccc(F)c4)c(Cl)c3)c2c1)c1ccc(CN2CCOCC2)cc1`, the GI50 in test [1] was 2.33 µM; in [2], 2.18 µM; in [3], 2.58 µM; in test [4], 2.95 µM; in test [5] it was 2.3 µM; in test [6], 2.57 µM. Further, the GI50 was 2.27 µM in test [7], 2.66 µM in test [8], 2.09 µM in test [9] and 2.02 µM in test [10]. Besides, the TGI in [1] is 7.16 µM; in test [2], 5.39 µM; in test [3], 8.47 µM; in test [4], 20.7 µM; in [5], 7.56 µM; in [6], 7.66 µM. Besides, the TGI is 5.46 µM in test [7], 10.3 µM in [8], 5.89 µM in test [9] and 5.83 µM in test [10].
For `Cc1c2oc3c(C)ccc(C(=O)OC(C)C4NC(=O)C(C(C)C)N(C)C(=O)CN(C)C(=O)C5CCCN5C(=O)C(C(C)C)NC4=O)c3nc-2c(C(=O)OC(C)C2NC(=O)C(C(C)C)N(C)C(=O)CN(C)C(=O)C3CCCN3C(=O)C(C(C)C)NC2=O)c(N)c1=O` (stereo not given) (I: cyclo([Sar][NMeV]TVP) / II: cyclo([Sar][NMeV]TVP); linker I:3-II:3 via Actinocin(9to1); configuration not given here), the GI50 in test [1] is 0.541 µM; in test [2], < 0.01 µM; in test [3] it was < 0.01 µM; in [4], < 0.0111 µM; in test [5], < 0.01 µM; in test [6], < 0.01 µM. Besides, the GI50 in test [7], in [8], in test [9] and in test [10] was < 0.01 µM each time. The TGI in [1] is > 100 µM; in test [2], 0.0247 µM; in test [3], 0.0883 µM; in test [4] it was > 66.3 µM; in test [5] it was 0.0363 µM; in test [6], 0.793 µM. Besides, the TGI in [7] was < 0.0152 µM; in test [8], 1.53 µM; in test [9], 0.0802 µM; in test [10], 0.0185 µM.
Take `c1ccc2cc(Cn3cc[n+](Cc4ccc5ccccc5c4)c3)ccc2c1`: the GI50 in test [1] is > 100 µM; in [2], 0.543 µM; in [3], 3.26 µM; in [4], 1.61 µM; in test [5] it was 1.18 µM; in [6] it was 1.15 µM. The GI50 in [7] is 1.37 µM; in [8], 3.65 µM; in test [9], 0.901 µM; in [10] it was 1.25 µM. For the same molecule, the TGI in test [1] is > 100 µM; in [2], 2.29 µM; in test [3], 17 µM; in test [4], 11 µM; in test [5], 3.15 µM; in test [6], 2.62 µM. Also, the TGI in test [7] was determined as 4.35 µM; in [8], 19.6 µM; in test [9], 10.1 µM; in [10], 4.72 µM.
`CCN1C(=O)N(CC)C2C1NN=c1s/c(=C\c3cccs3)c(=O)n12` (stereo not given): the GI50 was 0.0831 µM in [1]; 0.0268 µM in test [2]; 0.302 µM in [3]; 0.256 µM in [4]; 0.443 µM in test [5]; 0.0545 µM in test [6]. In addition, the GI50 in test [7] was 1.41 µM; in test [8], 0.069 µM; in test [9], 0.375 µM; in [10], 0.141 µM. Also, the TGI was > 100 µM in test [1]; 0.0828 µM in test [2]; > 100 µM in test [3]; > 100 µM in test [4]; > 100 µM in test [5]; > 82.6 µM in [6]. Further, the TGI in test [7], in test [8], in test [9] and in test [10] was > 100 µM throughout.
Take `Oc1[nH]c(N=C2N=c3ccccc3=N2)c2ccccc12`: the GI50 in test [1] was 3.87 µM; in [2] it was 12.4 µM; in test [3] it was 10.1 µM; in [4] it was 1.48 µM; in test [5], 16.7 µM; in test [6] it was 11.5 µM. In addition, the GI50 was 11.1 µM in [7], 3.64 µM in test [8], 7.29 µM in test [9] and 8.85 µM in test [10]. The TGI was found to be 30.1 µM in test [1]; 69.4 µM in [2]; 22.9 µM in test [3]; 27.8 µM in test [4]; 54.5 µM in test [5]; 42.9 µM in test [6]. For the same molecule, the TGI in test [7] turned out to be 29.7 µM; in test [8], 26 µM; in [9], 52.6 µM; in test [10] it was 22.2 µM.
On to `C=C(C)[C@@H]1C/C=C(/CO)CC[C@H]2O[C@]2(C)CC/C=C(\C)CC1`, for which the GI50 is 29.9 µM in [1]; 13.5 µM in test [2]; 15 µM in test [3]; 12.5 µM in [4]; 17.5 µM in test [5]; 16.1 µM in [6]. Moreover, the GI50 was 15.3 µM in test [7], 11.6 µM in test [8], 20.7 µM in [9] and 18.3 µM in test [10]. The TGI in test [1] was > 100 µM; in test [2], 29.2 µM; in test [3] it was 34.4 µM; in [4], 34.8 µM; in test [5], 34.7 µM; in test [6], 32.4 µM. Also, the TGI in test [7] was determined as 31.3 µM; in test [8] it was 24.5 µM; in test [9], 66.9 µM; in test [10], 33.4 µM.
